Results reported in ChEMBL document CHEMBL1201862, “PubChem BioAssay data set” (2004).
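Briefly, cells in 96-well plates were exposed to five compound concentrations for 48 h, and endpoints were estimated by linear interpolation. GI50 marks 50% less growth.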 The source made the active and inactive calls. No stated cut-off is given here; in the data, active = GI50 up to about 1.1 µM and inactive = higher.

Tests used:
Assay in all cases: NCI anticancer screen, dose series, 48 h
U-251 = tested on: U-251
RXF 393 = tested on: RXF 393
DU-145 = tested on: DU-145
HT-29 = tested on: HT-29
UACC-257 = tested on: UACC-257
RPMI-8226 = tested on: RPMI-8226
M14 = tested on: M14
OVCAR-3 = tested on: OVCAR-3
EKVX = tested on: EKVX
HCT-116 = tested on: HCT-116
HCC 2998 = tested on: HCC 2998
MOLT-4 = tested on: MOLT-4
NCI-H23 = tested on: NCI-H23
HCT-15 = tested on: HCT-15
Malme-3M = tested on: Malme-3M
SW-620 = tested on: SW-620
MDA-MB-435 = tested on: MDA-MB-435
MDA-N = tested on: MDA-N
SK-MEL-2 = tested on: SK-MEL-2
NCI-H226 = tested on: NCI-H226

SMILES | GI50 (U-251) | GI50 (RXF 393) | GI50 (DU-145) | GI50 (HT-29) | GI50 (UACC-257) | GI50 (RPMI-8226) | GI50 (M14) | GI50 (OVCAR-3) | GI50 (EKVX) | GI50 (HCT-116) | GI50 (HCC 2998) | GI50 (MOLT-4) | GI50 (NCI-H23) | GI50 (HCT-15) | GI50 (Malme-3M) | GI50 (SW-620) | GI50 (MDA-MB-435) | GI50 (MDA-N) | GI50 (SK-MEL-2) | GI50 (NCI-H226)
O=C1C=C(NCCc2ccccc2)c2ccccc2C1=O | 4.75 µM (inactive) | 6.65 µM (inactive) | 1.75 µM (inactive) | 3.49 µM (inactive) | 1.53 µM (inactive) | 14.8 µM (inactive) | 1.59 µM (inactive) | 1.44 µM (inactive) | 5.78 µM (inactive) | 4.95 µM (inactive) | 1.79 µM (inactive) | 7.33 µM (inactive) | 2.33 µM (inactive) | 1.67 µM | 1.06 µM (active) | 1.85 µM (inactive) | 0.925 µM (active) | 1.78 µM (inactive) | 1.91 µM (inactive) | 2.06 µM (inactive)
NCCNCC1CCNCC1 | > 100 µM (inactive) | > 100 µM (inactive) | > 100 µM (inactive) | > 100 µM (inactive) | > 100 µM (inactive) | > 100 µM (inactive) | > 100 µM (inactive) | > 100 µM (inactive) | > 100 µM (inactive) | > 100 µM (inactive) | > 100 µM (inactive) | > 100 µM (inactive) | > 100 µM (inactive) | > 100 µM | > 100 µM (inactive) | > 100 µM (inactive) | > 100 µM (inactive) | > 100 µM (inactive) | > 100 µM (inactive) | > 100 µM (inactive)
C=C(C)C12CC3CC/C(=N/O)C(C1)C3(N1CCOCC1)C/C2=N/O (stereo not given) | > 100 µM (inactive) | > 100 µM (inactive) | > 100 µM (inactive) | > 100 µM (inactive) | > 100 µM (inactive) | > 100 µM (inactive) | > 100 µM (inactive) | > 100 µM (inactive) | > 100 µM (inactive) | > 100 µM (inactive) | > 100 µM (inactive) | > 100 µM (inactive) | > 100 µM (inactive) | > 100 µM | > 100 µM (inactive) | > 100 µM (inactive) | > 100 µM (inactive) | > 100 µM (inactive) | > 100 µM (inactive) | > 100 µM (inactive)
CC(C)C[C@H]1[C@@H](OCc2ccccc2)COS(=O)(=O)N1[C@H](C)c1ccccc1 | 15.2 µM (inactive) | 29.1 µM (inactive) | 37.9 µM (inactive) | 26.9 µM (inactive) | 20 µM (inactive) | 4.05 µM (inactive) | > 100 µM (inactive) | 20.6 µM (inactive) | 22.1 µM (inactive) | 5.24 µM (inactive) | > 100 µM (inactive) | 3.8 µM (inactive) | 6.98 µM (inactive) | 29.1 µM | > 27.2 µM (inactive) | > 100 µM (inactive) | 49.7 µM (inactive) | > 78.5 µM (inactive) | 44.6 µM (inactive) | > 92 µM (inactive)
CCOC(=O)Nc1ccc(C)c(NC(=O)OCC)c1 | > 100 µM (inactive) | > 100 µM (inactive) | > 100 µM (inactive) | > 100 µM (inactive) | > 100 µM (inactive) | > 100 µM (inactive) | > 100 µM (inactive) | > 100 µM (inactive) | 6.58 µM (inactive) | > 100 µM (inactive) | 56.2 µM (inactive) | > 100 µM (inactive) | > 100 µM (inactive) | > 100 µM | > 100 µM (inactive) | > 100 µM (inactive) | > 100 µM (inactive) | > 100 µM (inactive) | > 100 µM (inactive) | > 100 µM (inactive)
COc1ccc(C2C(C)C(=O)C(C)C(c3ccc(OC)cc3)N2N=O)cc1 (stereo not given) | 117 µM (inactive) | 40.3 µM (inactive) | 213 µM (inactive) | > 738 µM (inactive) | > 703 µM (inactive) | > 1000 µM (inactive) | 537 µM (inactive) | 454 µM (inactive) | > 830 µM (inactive) | 127 µM (inactive) | > 750 µM (inactive) | > 789 µM (inactive) | 261 µM (inactive) | > 1000 µM | > 537 µM (inactive) | > 1000 µM (inactive) | 166 µM (inactive) | 163 µM (inactive) | 215 µM (inactive) | 207 µM (inactive)
COc1ccc(/N=N/C(=O)NC(Cc2ccccc2)C(=O)O)cc1 (stereo not given) | > 100 µM (inactive) | > 100 µM (inactive) | > 100 µM (inactive) | > 100 µM (inactive) | > 100 µM (inactive) | > 100 µM (inactive) | > 100 µM (inactive) | > 100 µM (inactive) | > 100 µM (inactive) | > 100 µM (inactive) | > 100 µM (inactive) | > 100 µM (inactive) | > 100 µM (inactive) | > 100 µM | > 100 µM (inactive) | > 100 µM (inactive) | > 100 µM (inactive) | > 100 µM (inactive) | > 100 µM (inactive) | > 100 µM (inactive)
CCN1CC2=C(NC(=S)NC2c2ccc(Cl)cc2)/C(=C/c2ccc(Cl)cc2)C1 (stereo not given) | 45.3 µM (inactive) | > 100 µM (inactive) | > 100 µM (inactive) | > 100 µM (inactive) | > 100 µM (inactive) | 17.5 µM (inactive) | > 100 µM (inactive) | 61.5 µM (inactive) | > 100 µM (inactive) | 62.5 µM (inactive) | 53.8 µM (inactive) | 10.5 µM (inactive) | > 100 µM (inactive) | 54.7 µM | 97.3 µM (inactive) | 67.1 µM (inactive) | 61.9 µM (inactive) | > 100 µM (inactive) | > 100 µM (inactive) | > 100 µM (inactive)
O=C1C(NS(=O)(=O)c2ccccc2)=C(n2cnc3ccccc32)C(=O)c2ccccc21 | 46.1 µM (inactive) | 16 µM (inactive) | > 100 µM (inactive) | > 100 µM (inactive) | > 100 µM (inactive) | 50.5 µM (inactive) | > 100 µM (inactive) | > 100 µM (inactive) | > 100 µM (inactive) | > 100 µM (inactive) | > 100 µM (inactive) | > 100 µM (inactive) | 58.2 µM (inactive) | > 100 µM | > 100 µM (inactive) | > 100 µM (inactive) | > 100 µM (inactive) | > 100 µM (inactive) | > 100 µM (inactive) | > 100 µM (inactive)
Cc1c2cc[n+](C)c(C)c2cc2c1[nH]c1ccccc12 | 0.69 µM (active) | 38.7 µM (inactive) | 10.7 µM (inactive) | 10.6 µM (inactive) | 10.8 µM (inactive) | 6.07 µM (inactive) | 25.2 µM (inactive) | 5 µM (inactive) | 5.46 µM (inactive) | 16.1 µM (inactive) | 7.78 µM (inactive) | 4.05 µM (inactive) | 2.05 µM (inactive) | > 100 µM | 2.72 µM (inactive) | 8.09 µM (inactive) | 16.2 µM (inactive) | 27.5 µM (inactive) | 6.73 µM (inactive) | 1.69 µM (inactive)
O=P(Nc1ccccc1)(Oc1ccccc1)N1CCN(c2ccccc2)CC1 (stereo not given) | 16.8 µM (inactive) | 18.2 µM (inactive) | 19.6 µM (inactive) | 15.8 µM (inactive) | 20.9 µM (inactive) | 40.7 µM (inactive) | 15.2 µM (inactive) | 18.7 µM (inactive) | 17.4 µM (inactive) | 16.8 µM (inactive) | 16.3 µM (inactive) | 17.9 µM (inactive) | 19.6 µM (inactive) | 13.8 µM | 17.2 µM (inactive) | 25.4 µM (inactive) | 20.8 µM (inactive) | 16.9 µM (inactive) | 20.9 µM (inactive) | 22.3 µM (inactive)
c1sc(NC2=NCCO2)c2c1CCCC2 | > 100 µM (inactive) | > 100 µM (inactive) | > 100 µM (inactive) | > 100 µM (inactive) | > 100 µM (inactive) | > 100 µM (inactive) | > 100 µM (inactive) | > 100 µM (inactive) | > 100 µM (inactive) | > 100 µM (inactive) | > 100 µM (inactive) | 85.5 µM (inactive) | > 100 µM (inactive) | > 100 µM | > 100 µM (inactive) | > 100 µM (inactive) | > 100 µM (inactive) | > 100 µM (inactive) | > 100 µM (inactive) | > 100 µM (inactive)
C=CCN1CCC(c2cc(C(=O)OCC)[nH]c2-c2cc(C)no2)C1=O (stereo not given) | > 100 µM (inactive) | > 100 µM (inactive) | > 100 µM (inactive) | > 100 µM (inactive) | > 100 µM (inactive) | > 100 µM (inactive) | > 100 µM (inactive) | > 100 µM (inactive) | > 100 µM (inactive) | > 100 µM (inactive) | > 100 µM (inactive) | 79.6 µM (inactive) | > 100 µM (inactive) | > 100 µM | > 100 µM (inactive) | > 100 µM (inactive) | > 100 µM (inactive) | > 100 µM (inactive) | > 100 µM (inactive) | > 100 µM (inactive)
CSC(=N\c1ccccc1)/N=C(\SCc1ccccc1)N(C)C | 1.12 µM (inactive) | 0.989 µM (active) | 0.9 µM (active) | 0.288 µM (active) | 1.57 µM (inactive) | 0.218 µM (active) | 0.789 µM (active) | 0.869 µM (active) | 1.63 µM (inactive) | 0.292 µM (active) | 0.359 µM (active) | 0.382 µM (active) | 1.24 µM (inactive) | 0.463 µM | 1.14 µM (inactive) | 0.312 µM (active) | 1.23 µM (inactive) | 0.748 µM (active) | 1.87 µM (inactive) | 1.49 µM (inactive)
